Experimental data as given in patent US11344521B2, “Methods for the treatment of leptomeningeal disease” (priority 2017, dated 2022).

Test: Solubility in water
Assay type: physicochemical

NC(=O)C(CCC(=O)[O-])NC(=O)Cc1ccccc1.[Na+] (stereo not shown) [Iso-PG, phenylacetylisoglutaminate sodium]
solubility in water: soluble in water
